This is an account of results in patent US12187723B2 (BRISTOL-MYERS SQUIBB COMPANY, priority 2019, dated 2025).

In one experiment the target is T1, human TLR7 (Homo sapiens, UniProt Q9NYK1).
T1 construct: host or cells: HEK-Blue cells
T1 sequence (Q9NYK1 27-1049): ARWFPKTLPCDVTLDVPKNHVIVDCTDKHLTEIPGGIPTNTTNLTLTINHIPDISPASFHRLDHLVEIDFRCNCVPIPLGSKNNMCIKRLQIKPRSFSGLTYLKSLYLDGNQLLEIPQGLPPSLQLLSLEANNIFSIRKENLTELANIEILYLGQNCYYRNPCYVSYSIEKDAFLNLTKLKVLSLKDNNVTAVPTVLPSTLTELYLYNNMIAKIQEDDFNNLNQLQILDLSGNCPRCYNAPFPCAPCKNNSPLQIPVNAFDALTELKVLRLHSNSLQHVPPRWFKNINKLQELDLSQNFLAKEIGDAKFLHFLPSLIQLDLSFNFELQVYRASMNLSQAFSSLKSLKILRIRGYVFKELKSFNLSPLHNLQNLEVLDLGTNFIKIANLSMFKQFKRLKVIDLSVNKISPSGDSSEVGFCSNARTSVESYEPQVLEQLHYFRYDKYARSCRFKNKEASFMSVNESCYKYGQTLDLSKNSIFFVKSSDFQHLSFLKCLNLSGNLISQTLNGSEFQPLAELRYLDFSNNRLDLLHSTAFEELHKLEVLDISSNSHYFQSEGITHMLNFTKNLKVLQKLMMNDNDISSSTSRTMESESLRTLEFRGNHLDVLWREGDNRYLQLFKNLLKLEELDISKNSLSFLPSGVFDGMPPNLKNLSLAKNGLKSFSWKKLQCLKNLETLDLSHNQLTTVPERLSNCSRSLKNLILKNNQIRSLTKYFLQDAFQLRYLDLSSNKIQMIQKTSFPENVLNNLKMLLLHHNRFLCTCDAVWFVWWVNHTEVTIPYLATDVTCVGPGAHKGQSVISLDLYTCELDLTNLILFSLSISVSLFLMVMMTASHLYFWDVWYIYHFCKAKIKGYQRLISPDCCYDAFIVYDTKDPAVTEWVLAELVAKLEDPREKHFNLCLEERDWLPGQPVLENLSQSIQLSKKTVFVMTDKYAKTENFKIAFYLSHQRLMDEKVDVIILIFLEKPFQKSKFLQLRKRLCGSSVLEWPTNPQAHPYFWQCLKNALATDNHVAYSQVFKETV
Kind of experiment: TLR7 inhibition reporter assay (HEK-Blue SEAP). To be noted: HEK-Blue cells overexpressing human TLR7, gardiquimod 7.5 μM, 22 hour incubation. It is filed as cell-based. The gist of the method:
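Dose-response testing from 0.05 nM to 50 μM final was done on reporter cells for 22 hours at 37° C. Secreted SEAP was then detected, and inhibition was calculated as percent reduction of the agonist-plus-DMSO signal compared with wells given a known inhibitor.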
(A reporter such as luciferase makes a cellular process visible.)

A further experiment deals with T2, human TLR9 (Homo sapiens, UniProt Q9NR96).
T2 construct: host or cells: HEK-Blue cells
T2 sequence (Q9NR96 26-1032): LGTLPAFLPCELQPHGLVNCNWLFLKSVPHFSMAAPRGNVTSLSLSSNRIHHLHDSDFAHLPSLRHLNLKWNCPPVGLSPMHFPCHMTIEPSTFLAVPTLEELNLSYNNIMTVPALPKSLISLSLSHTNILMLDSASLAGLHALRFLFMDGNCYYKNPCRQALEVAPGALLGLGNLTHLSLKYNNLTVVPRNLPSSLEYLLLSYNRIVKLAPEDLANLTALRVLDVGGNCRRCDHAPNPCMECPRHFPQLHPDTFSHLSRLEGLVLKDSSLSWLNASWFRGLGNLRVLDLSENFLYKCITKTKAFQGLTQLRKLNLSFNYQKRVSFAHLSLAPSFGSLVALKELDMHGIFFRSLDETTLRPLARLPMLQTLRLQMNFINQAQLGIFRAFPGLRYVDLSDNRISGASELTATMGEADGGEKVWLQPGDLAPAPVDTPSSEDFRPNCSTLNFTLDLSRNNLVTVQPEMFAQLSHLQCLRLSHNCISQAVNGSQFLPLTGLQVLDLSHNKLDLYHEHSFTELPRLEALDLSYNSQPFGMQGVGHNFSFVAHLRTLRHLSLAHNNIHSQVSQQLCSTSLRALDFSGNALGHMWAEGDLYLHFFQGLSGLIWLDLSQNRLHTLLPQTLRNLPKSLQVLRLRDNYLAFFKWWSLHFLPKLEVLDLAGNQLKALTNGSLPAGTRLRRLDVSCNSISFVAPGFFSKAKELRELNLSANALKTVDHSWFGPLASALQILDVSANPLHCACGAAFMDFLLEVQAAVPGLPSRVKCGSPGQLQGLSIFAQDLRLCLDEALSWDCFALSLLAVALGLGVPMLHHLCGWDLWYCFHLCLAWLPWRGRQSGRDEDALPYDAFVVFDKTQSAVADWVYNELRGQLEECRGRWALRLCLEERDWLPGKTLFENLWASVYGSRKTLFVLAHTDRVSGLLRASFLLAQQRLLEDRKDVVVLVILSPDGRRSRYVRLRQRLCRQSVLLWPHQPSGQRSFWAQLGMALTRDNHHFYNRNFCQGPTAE
In words: TLR9 inhibition reporter assay (HEK-Blue SEAP). In kind it is cell-based. To be noted: HEK-Blue cells overexpressing human TLR9, ODN2006 5 nM, 22 hour incubation. The gist of the method: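 Screening used HEK-Blue cells overexpressing one human TLR (7, 8 or 9) and an IFN-β minimal promoter–NF-κB/AP-1 SEAP construct. Stimulation lasted 22 h at 37 °C with receptor-specific agonist: gardiquimod, R848 or ODN2006 at 7.5 μM, 15.9 μM and 5 nM.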

As usually defined, the IC50 is the concentration needed to halve the response being measured. Lower therefore signals greater potency.

For the compound `COc1cc(-c2cc3[nH]c(=O)n(C4CCC(N5CCC6(CC5)COC6)CC4)c3cc2C(C)C)cn2ncnc12` (centres unmarked) [Example 239, 1-(4-(2-oxa-7-azaspiro[3.5]nonan-7-yl)cyclohexyl)-6-isopropyl-5-(8-methoxy-[1,2,4]triazolo[1,5-a]pyridin-6-yl)-1,3-dihydro-2H-benzo[d]imidazol-2-one], the figures for the IC50 on human TLR7 and against human TLR9 were 1.69 nM and 13000 nM, respectively.
As to `CCCN(CCC)[C@H]1CC[C@@H](n2c(=O)[nH]c3cc(-c4cn5ncnc5c(C)c4C)c(C(C)C)cc32)CC1` [Example 199, 5-(7,8-dimethyl-[1,2,4]triazolo[1,5-a]pyridin-6-yl)-1-((1s,4s)-4-(dipropylamino)cyclohexyl)-6-isopropyl-1,3-dihydro-2H-benzo[d]imidazol-2-one], the IC50 against human TLR7 was found to be 5.03 nM; against human TLR9, 3370 nM.
In the case of `COc1cc(-c2cc3[nH]c(=O)n([C@@H]4CCCN(C5CCCOC5)C4)c3cc2C(C)C)cn2ncnc12` (single isomer, unassigned) [Example 219], the values for the IC50 on human TLR7 and on human TLR9 were 0.05 nM and 25100 nM, respectively.
For `CCc1cc2c(cc1-c1cc(OC)c3ncnn3c1)[nH]c(=O)n2[C@@H]1CCCN(CC(CC)CC)C1` [Example 178, (R)-6-ethyl-1-(1-(2-ethylbutyl)piperidin-3-yl)-5-(8-methoxy-[1,2,4]triazolo[1,5-a]pyridin-6-yl)-1,3-dihydro-2H-benzo[d]imidazol-2-one], in that order: 0.81 nM and 7470 nM.
The matching figures for `Cc1cc2c(cc1-c1cc(C)c3ncnn3c1)[nH]c(=O)n2[C@H]1CCCN(C2COC2)C1` [Example 14, (S)-6-methyl-5-(8-methyl-[1,2,4]triazolo[1,5-a]pyridin-6-yl)-1-(1-(oxetan-3-yl)piperidin-3-yl)-1,3-dihydro-2H-benzo[d]imidazol-2-one]: 787 nM and over 50000 nM.
For `COc1cc(-c2cc3[nH]c(=O)n(C4CCC(N5CC6(CCOCC6)C5)CC4)c3cc2C(C)C)cn2ncnc12` (single isomer, unassigned) [Example 235, 1-(4-(7-oxa-2-azaspiro[3.5]nonan-2-yl)cyclohexyl)-6-isopropyl-5-(8-methoxy-[1,2,4]triazolo[1,5-a]pyridin-6-yl)-1,3-dihydro-2H-benzo[d]imidazol-2-one], in that order: 1.52 nM and 11200 nM.
On to `COc1cc(-c2cc3[nH]c(=O)n(C4CCC(N5CCNC(=O)C5)CC4)c3cc2C(C)C)cn2ncnc12` (single isomer, unassigned) [Example 233, 6-isopropyl-5-(8-methoxy-[1,2,4]triazolo[1,5-a]pyridin-6-yl)-1-(4-(3-oxopiperazin-1-yl)cyclohexyl)-1,3-dihydro-2H-benzo[d]imidazol-2-one], for which the IC50 against human TLR7 is 11 nM; at human TLR9 it was over 50000 nM.
On to `Cc1c(-c2cc3[nH]c(=O)n([C@H]4CC[C@@H](NC(C)C)CC4)c3cc2C(C)C)cn2ncnc2c1C` [Example 186, 5-(7,8-dimethyl-[1,2,4]triazolo[1,5-a]pyridin-6-yl)-6-isopropyl-1-((1s,4s)-4-(isopropylamino)cyclohexyl)-1,3-dihydro-2H-benzo[d]imidazol-2-one], for which the IC50 against human TLR7 is 0.95 nM; against human TLR9, 5990 nM.
As for `COCCN1CCC[C@H](n2c(=O)[nH]c3cc(-c4cc(OC)c5ncnn5c4)c(C(C)C)cc32)C1` [Example 221, (S)-6-isopropyl-5-(8-methoxy-[1,2,4]triazolo[1,5-a]pyridin-6-yl)-1-(1-(2-methoxyethyl)piperidin-3-yl)-1,3-dihydro-2H-benzo[d]imidazol-2-one], the IC50 amounted to 11.3 nM on human TLR7 and 20600 nM against human TLR9.
`CCc1cc2c(cc1-c1cc(OC)c3ncnn3c1)[nH]c(=O)n2[C@@H]1CCCN(CC2CC2)C1` [Example 182, (R)-1-(1-(cyclopropylmethyl)piperidin-3-yl)-6-ethyl-5-(8-methoxy-[1,2,4]triazolo[1,5-a]pyridin-6-yl)-1,3-dihydro-2H-benzo[d]imidazol-2-one]: the IC50 at human TLR7 turned out to be 1.93 nM; against human TLR9, 7940 nM.
Regarding `CCc1cc2c(cc1-c1cc(OC)c3ncnn3c1)[nH]c(=O)n2[C@@H]1CCCN(C2CCOC2)C1` (stereo partly drawn) [Example 212, 6-ethyl-5-(8-methoxy-[1,2,4]triazolo[1,5-a]pyridin-6-yl)-1-((3R)-1-(tetrahydrofuran-3-yl)piperidin-3-yl)-1,3-dihydro-2H-benzo[d]imidazol-2-one], the IC50 was 25.4 nM at human TLR7 and over 50000 nM on human TLR9.
For `COc1cc(-c2cc3[nH]c(=O)n([C@H]4CC[C@H](N(C)C)CC4)c3cc2C(C)C)cn2ncnc12` [Example 202, 1-((1r,4r)-4-(dimethylamino)cyclohexyl)-6-isopropyl-5-(8-methoxy-[1,2,4]triazolo[1,5-a]pyridin-6-yl)-1,3-dihydro-2H-benzo[d]imidazol-2-one], in that order: 3.51 nM and 23000 nM.
The matching figures for `CCc1cc2c(cc1-c1cc(OC)c3ncnn3c1)[nH]c(=O)n2[C@@H]1CCCN(CC2CCOCC2)C1` [Example 175, (R)-6-ethyl-5-(8-methoxy-[1,2,4]triazolo[1,5-a]pyridin-6-yl)-1-(1-((tetrahydro-2H-pyran-4-yl)methyl)piperidin-3-yl)-1,3-dihydro-2H-benzo[d]imidazol-2-one]: 0.83 nM and 7390 nM.
As to `CCc1cc2c(cc1-c1cc(OC)c3ncnn3c1)[nH]c(=O)n2[C@@H]1CCCN(C2CCOCC2)C1` [Example 184, (R)-6-ethyl-5-(8-methoxy-[1,2,4]triazolo[1,5-a]pyridin-6-yl)-1-(1-(tetrahydro-2H-pyran-4-yl)piperidin-3-yl)-1,3-dihydro-2H-benzo[d]imidazol-2-one], the IC50 on human TLR7 is 12.1 nM; against human TLR9, 26600 nM.
For `CCc1cc2c(cc1-c1cc(OC)c3ncnn3c1)[nH]c(=O)n2[C@@H]1CCCN(C(C)C)C1` [Example 172, (R)-6-ethyl-1-(1-isopropylpiperidin-3-yl)-5-(8-methoxy-[1,2,4]triazolo[1,5-a]pyridin-6-yl)-1,3-dihydro-2H-benzo[d]imidazol-2-one], in that order: 1.45 nM and 6830 nM.
The matching figures for `Cc1c(-c2cc3[nH]c(=O)n([C@H]4CC[C@@H](N(C)C)CC4)c3cc2C(C)C)cn2ncnc2c1C` [Example 185, 5-(7,8-dimethyl-[1,2,4]triazolo[1,5-a]pyridin-6-yl)-1-((1s,4s)-4-(dimethylamino)cyclohexyl)-6-isopropyl-1,3-dihydro-2H-benzo[d]imidazol-2-one]: 3.39 nM and 7070 nM.
